≈ marks a conversion by molar mass, not a printed value. Where two headings read alike, the source gives them in different places. Positions of bridges follow the written chain, without caps; N, C: chain ends. Non-standard residues stand in square brackets, D forms with d. Residues, ends and D or L forms follow the SMILES beside them. No end group written: not given here. *: point of attachment. pS = N[C@@H](COP(=O)(O)O)C(=O)O; X1 = CC[C@H](C)CCCCC(=O)*; Dab = NCC[C@H](N)C(=O)O
Experiments:
P. aeruginosa NHRI-01 = format: cell-based, Pseudomonas aeruginosa; details: Colistin resistant strain; colistin susceptibility by broth-dilution (CLSI)
Source text: (§1) Clinical isolates of Pseudomonas aeruginosa (NHRI-01, NHRI-02 and NHRI-04) were obtained through the program of Taiwan Surveillance of Antimicrobial Resistance (TSAR), National Health Research Institutes (NHRI), Taiwan. Acinetobacter baumannii (ATCC 17989, ATCC 17978 CR, ATCC19606, ATCC 19606 CR, TCGH 45530 and TCGH 46709) were obtained from Tzu-Chi Buddhist General Hospital (TCGH) in Taiwan, and clinical isolates (TCGH 45530 and TCGH 46709) were identified using the Vitek system (Biomerieux Vitek, Inc., Hazelwood, MO, USA). A. baumannii is defined as multidrug-resistant, when the organism is resistant to piperacillin, piperacillin-tazobactam, ampicillin/sulbactam, imipenem, ceftazidime, gentamicin, amikacin, tetracycline, chloramphenicol, ciprofloxacin, and cotrimoxazole. Susceptibility to colistin was determined using the broth-dilution method, in accordance with the guidelines of the Clinical and Laboratory Standards Institute (CLSI).
(§2) All peptides were purchased from Yao-Hong Biotechnology Inc. (Taipei, Taiwan). Vendors provided data of peptide characterizations, including HPLC and Mass (data not shown). Antimicrobial activity was determined as described with some modifications as detailed below. Bacteria were grown overnight in Mueller–Hinton broth (Difco) at 37°C, and during the mid-logarithmic phase, bacteria were diluted to 10^6 CFU (colony formation unit)/ml in phosphate buffer (10 mM sodium phosphate and 50 mM sodium chloride, pH 7.2). Peptides were serially diluted in the same buffer. Fifty microliter (µl) of bacteria was mixed with fifty µl of peptides at varying concentrations followed by incubation at 37°C for 3 hours without shaking. At the end of incubation, bacteria were placed on Mueller-Hinton broth agar plates, and allowed growth at 37°C overnight for measurement of minimal bactericidal concentration (MBC). […] All peptides were tested in triplicate.

P. aeruginosa NHRI-02 = format: cell-based, Pseudomonas aeruginosa; details: Colistin sensitive strain; colistin susceptibility by broth-dilution (CLSI)
Source text: as §1, §2

P. aeruginosa NHRI-04 = format: cell-based, Pseudomonas aeruginosa; details: Colistin sensitive strain; colistin susceptibility by broth-dilution (CLSI)
Source text: as §1, §2

[1] = test system: A. baumannii ATCC17978 CR; format: cell-based, Acinetobacter baumannii; details: Induced Colistin resistant strain; colistin susceptibility by broth-dilution (CLSI)
Source text: as §1, §2

A. baumannii ATCC17978 = format: cell-based, Acinetobacter baumannii; details: Reference strain; colistin susceptibility by broth-dilution (CLSI)
Source text: as §1, §2

[2] = test system: A. baumannii ATCC19606 CR; format: cell-based, Acinetobacter baumannii; details: Induced Colistin resistant strain; colistin susceptibility by broth-dilution (CLSI)
Source text: as §1, §2

A. baumannii ATCC19606 = format: cell-based, Acinetobacter baumannii; details: Reference strain; colistin susceptibility by broth-dilution (CLSI)
Source text: as §1, §2

A. baumannii TCGH45530 = format: cell-based, Acinetobacter baumannii; details: Clinical isolate, multidrug resistance; colistin susceptibility by broth-dilution (CLSI)
Source text: as §1, §2

A. baumannii TCGH46709 = format: cell-based, Acinetobacter baumannii; details: Clinical isolate, multidrug resistance; colistin susceptibility by broth-dilution (CLSI)
Source text: as §1, §2

[3] = test system: P. aeruginosa (ATCC 27853); format: cell-based, Pseudomonas aeruginosa
Protocol: (§3) The antimicrobial activities of HBc ARD peptides were tested using a number of bacterial strains from ATCC, including Pseudomonas aeruginosa Migula strain (ATCC 27853, ampicillin-resistant), Pseudomonas aeruginosa Migula strain (ATCC 9027, ampicillin-resistant), Klebsiella pneumoniae strain (ATCC 17593), Escherichia coli strain (ATCC 25922), Staphylococcus aureus subsp. strain (ATCC 25923, methicillin-resistant), Staphylococcus aureus subsp. strain (ATCC 29213, methicillin-resistant), Staphylococcus aureus subsp. strain (ATCC 19636, methicillinresistant), and Candida albicans strain (ATCC 10231).
as §2

[4] = test system: P. aeruginosa (ATCC 9027); format: cell-based, Pseudomonas aeruginosa
Protocol: as §3, §2

[5] = test system: K. pneumonia (ATCC 13884); format: cell-based, Klebsiella pneumoniae
E. coli (ATCC 25922) = format: cell-based, Escherichia coli
Protocol: as §3, §2

S. aureus (ATCC 19636) = format: cell-based, Staphylococcus aureus
Protocol: as §3, §2

S. aureus (ATCC 25923) = format: cell-based, Staphylococcus aureus
Protocol: as §3, §2

S. aureus (ATCC 29213) = format: cell-based, Staphylococcus aureus
Protocol: as §3, §2

[6] = test system: tested bacteria and fungi; format: cell-based; details: summary over the tested bacteria of Table 1
Protocol: as §3, §2

[7] = ampicillin-resistant strain, 3 h at 37°C in phosphate buffer pH 7.2, triplicate
[8] = 3 h at 37°C in phosphate buffer pH 7.2, triplicate
[9] = methicillin-resistant strain, 3 h at 37°C in phosphate buffer pH 7.2, triplicate
[10] = ampicillin-resistant strain, 3 h at 37°C in 10 mM sodium phosphate, 50 mM NaCl, pH 7.2, 10^6 CFU/ml, triplicate, ND = not detectable
[11] = 3 h at 37°C in 10 mM sodium phosphate, 50 mM NaCl, pH 7.2, 10^6 CFU/ml, triplicate, ND = not detectable
[12] = methicillin-resistant strain, 3 h at 37°C in 10 mM sodium phosphate, 50 mM NaCl, pH 7.2, 10^6 CFU/ml, triplicate, ND = not detectable

Row | Compound | MBC (P. aeruginosa NHRI-01) [µg/mL] | MBC (P. aeruginosa NHRI-02) [µg/mL] | MBC (P. aeruginosa NHRI-04) [µg/mL] | MBC [1] [µg/mL] | MBC (A. baumannii ATCC17978) [µg/mL] | MBC [2] [µg/mL] | MBC (A. baumannii ATCC19606) [µg/mL] | MBC (A. baumannii TCGH45530) [µg/mL] | MBC (A. baumannii TCGH46709) [µg/mL] | Antimicrobial activity, MBC [3, 7] [µg/mL] | Antimicrobial activity, MBC [4, 7] [µg/mL] | Antimicrobial activity, MBC [5, 8] [µg/mL] | Antimicrobial activity, MBC (E. coli (ATCC 25922); [8]) [µg/mL] | Antimicrobial activity, MBC (S. aureus (ATCC 19636); [9]) [µg/mL] | Antimicrobial activity, MBC (S. aureus (ATCC 25923); [9]) [µg/mL] | Antimicrobial activity, MBC (S. aureus (ATCC 29213); [9]) [µg/mL] | MBC for bacteria [6] [µM] | Antimicrobial activity, MBC [3, 10] [µM] | Antimicrobial activity, MBC [4, 10] [µM] | Antimicrobial activity, MBC [5, 11] [µM] | further results
1 | CC[C@H](C)CCCCC(=O)N[C@@H](CCN)C(=O)N[C@H](C(=O)N[C@@H](CCN)C(=O)N[C@H]1CCNC(=O)[C@H]([C@@H](C)O)NC(=O)[C@H](CCN)NC(=O)[C@H](CCN)NC(=O)[C@H](CC(C)C)NC(=O)[C@@H](Cc2ccccc2)NC(=O)[C@H](CCN)NC1=O)[C@@H](C)O [Polymyxin B] (X1-[Dab]T[Dab][Dab][Dab][dF]L[Dab][Dab]T; lactam 4-C (inferred); N-terminus assumed) | 4 (≈ 3.32 µM) | 2 (≈ 1.66 µM) | 2 (≈ 1.66 µM) | 8 (≈ 6.65 µM) | 4 (≈ 3.32 µM) | >8 | 2 (≈ 1.66 µM) | 8 (≈ 6.65 µM) | >8 | – | – | – | – | – | – | – | – | – | – | – | –
2 | CC[C@H](C)CCCCC(=O)N[C@@H](CCN)C(=O)N[C@H](C(=O)N[C@@H](CCN)C(=O)N[C@H]1CCNC(=O)[C@H]([C@@H](C)O)NC(=O)[C@H](CCN)NC(=O)[C@H](CCN)NC(=O)[C@H](CC(C)C)NC(=O)[C@@H](CC(C)C)NC(=O)[C@H](CCN)NC1=O)[C@@H](C)O [Colistin] (X1-[Dab]T[Dab][Dab][Dab][dL]L[Dab][Dab]T; lactam 4-C (inferred); N-terminus assumed) | >8 | 4 (≈ 3.42 µM) | 4 (≈ 3.42 µM) | >8 | 4 (≈ 3.42 µM) | 8 (≈ 6.84 µM) | 2 (≈ 1.71 µM) | >8 | >8 | – | – | – | – | – | – | – | – | – | – | – | –
3 | CC(C)[C@H](NC(=O)[C@@H](NC(=O)[C@@H](N)[C@@H](C)O)C(C)C)C(=O)N[C@@H](CCCNC(=N)N)C(=O)N[C@@H](CCCNC(=N)N)C(=O)N[C@@H](CCCNC(=N)N)C(=O)NCC(=O)N[C@@H](CCCNC(=N)N)C(=O)N[C@@H](COP(=O)(O)O)C(=O)N1CCC[C@H]1C(=O)N[C@@H](CCCNC(=N)N)C(=O)N[C@@H](CCCNC(=N)N)C(=O)N[C@@H](CCCNC(=N)N)C(=O)N[C@H](C(=O)N1CCC[C@H]1C(=O)N[C@@H](COP(=O)(O)O)C(=O)N1CCC[C@H]1C(=O)N[C@@H](CCCNC(=N)N)C(=O)N[C@@H](CCCNC(=N)N)C(=O)N[C@@H](CCCNC(=N)N)C(=O)N[C@@H](CCCNC(=N)N)C(=O)N[C@@H](CO)C(=O)N[C@@H](CCC(N)=O)C(=O)N[C@@H](COP(=O)(O)O)C(=O)N1CCC[C@H]1C(=O)N[C@@H](CCCNC(=N)N)C(=O)N[C@@H](CCCNC(=N)N)C(=O)N[C@@H](CCCNC(=N)N)C(=O)N[C@@H](CCCNC(=N)N)C(=O)N[C@@H](CO)C(=O)N[C@@H](CCC(N)=O)C(=O)N[C@@H](CO)C(=O)N[C@@H](CCCNC(=N)N)C(=O)N[C@@H](CCC(=O)O)C(=O)N[C@@H](CO)C(=O)N[C@@H](CCC(N)=O)C(=O)N[C@@H](CS)C(=O)O)[C@@H](C)O [HBc155p162p170p] | – | – | – | – | – | – | – | – | – | > 154.5 | > 154.5 | > 154.5 | > 154.5 | > 154.5 | > 154.5 | > 154.5 | > 32 | – | – | – | Antimicrobial activity, MBC ([3]; ATCC 27853, 3 h, pH 7.2): > 32 µM; Antimicrobial activity, MBC ([4]; ATCC 9027, 3 h, pH 7.2): > 32 µM; Antimicrobial activity, MBC ([5]; ATCC 13884, 3 h, pH 7.2): > 32 µM; Antimicrobial activity, MBC (E. coli (ATCC 25922); ATCC 25922, 3 h, pH 7.2): > 32 µM; Antimicrobial activity, MBC (S. aureus (ATCC 19636); ATCC 19636, 3 h, pH 7.2): > 32 µM; Antimicrobial activity, MBC (S. aureus (ATCC 25923); ATCC 25923, 3 h, pH 7.2): > 32 µM; Antimicrobial activity, MBC (S. aureus (ATCC 29213); ATCC 29213, 3 h, pH 7.2): > 32 µM
4 | HBc176p: HBc147-183 phosphorylated on S176 (TVVRRRGRSPRRRTPSPRRRRSQSPRRRR[pS]QSRESQC; UniProt P03147 147-183, looked up, fragment) | – | – | – | – | – | – | – | – | – | 37.4 | 37.4 | 18.68 | 37.4 | 37.4 | 37.4 | 37.4 | 8 | 8 | 8 | 4 | Antimicrobial activity, MBC (E. coli (ATCC 25922); [11]): 8 µM; Antimicrobial activity, MBC (S. aureus (ATCC 19636); [12]): 8 µM; Antimicrobial activity, MBC (S. aureus (ATCC 25923); [12]): 8 µM; Antimicrobial activity, MBC (S. aureus (ATCC 29213); [12]): 8 µM
5 | HBc170p: HBc147-183 phosphorylated on S170 (TVVRRRGRSPRRRTPSPRRRRSQ[pS]PRRRRSQSRESQC; UniProt P03147 147-183, looked up, fragment) | – | – | – | – | – | – | – | – | – | ~149.5 | ~149.5 | 37.4 | ~149.5 | ~149.5 | ~149.5 | ~149.5 | 32 | ~32 | ~32 | 8 | Antimicrobial activity, MBC (E. coli (ATCC 25922); [11]): ~32 µM; Antimicrobial activity, MBC (S. aureus (ATCC 19636); [12]): ~32 µM; Antimicrobial activity, MBC (S. aureus (ATCC 25923); [12]): ~32 µM; Antimicrobial activity, MBC (S. aureus (ATCC 29213); [12]): ~32 µM
